Consider 1 compound from ChEMBL document CHEMBL5728508, “Inhibitors of lysine specific demethylase-1” (2021).

Bounds are passed on as bounds.

The target of this test is Lysine-specific histone demethylase 1A (Homo sapiens, UniProt O60341). Put plainly: In Vitro Enzyme Inhibition Assay: The enzymatic assay of LSD1 activity is based on Time Resolved-Fluorescence Resonance Energy Transfer (TR-FRET) detection. […] Plates were read by EnVision Multilabel Reader in TR-FRET mode (excitation at 320 nm, emission at 615 nm and 665 nm) after 1 hour incubation at room temperature. On the technique in general: In TR-FRET formats the signal depends on donor and acceptor labels being close together.

As usually defined, the IC50 is the midpoint of a concentration-inhibition curve. A high value points to weaker potency. For the compound `CCn1c(-c2ccc(OC)cc2)c(-c2ccc(C#N)c(F)c2)cc(N2CCC(N)CC2)c1=O`, the IC50 is under 100 nM.
